ChEMBL document CHEMBL4396916, “Novel potent substituted 4-amino-2-thiopyrimidines as dual VEGFR-2 and BRAF kinase inhibitors” (Eur J Med Chem, 2019)

Tests used:
[1] = molecular target: Vascular endothelial growth factor receptor 2 (Homo sapiens, UniProt P35968); experiment: Inhibition of human N-terminal GST tagged VEGFR-2 expressed in baculovirus infected Sf9 cells using poly (Glu,Tyr) 4:1 as substrate in presence of ATP by Kinase-Glo luminescence assay
MCF7 [2] = experiment: Cytotoxicity against human MCF7 cells expressing VEGFR2 and wild type BRAF measured after 48 hrs by sulforhodamine B assay; assay type: functional, cell-based; conditions: MCF7, 48 h
T47D [3] = experiment: Cytotoxicity against human T47D cells expressing wild type BRAF measured after 48 hrs by sulforhodamine B assay; assay type: functional, cell-based
MCF7 [4] = experiment: Inhibition of VEGFR2 level in human MCF7 cells at 10 uM measured after 48 hrs by ELISA relative to control; assay type: functional; conditions: MCF7, 48 h
NCI-H522 = experiment: Growth inhibition of human NCI-H522 cells at 10 uM incubated for 48 hrs by sulforhodamine B assay relative to control; assay type: functional; conditions: NCI-H522, 48 h, read-out: GI
MDA-MB-231 = experiment: Growth inhibition of human MDA-MB-231 cells at 10 uM incubated for 48 hrs by sulforhodamine B assay relative to control; assay type: functional; conditions: MDA-MB-231, 48 h, read-out: GI
Hs-578T = experiment: Growth inhibition of human Hs578T cells at 10 uM incubated for 48 hrs by sulforhodamine B assay relative to control; assay type: functional; conditions: read-out: GI
NCI-H226 = experiment: Growth inhibition of human NCI-H226 cells at 10 uM incubated for 48 hrs by sulforhodamine B assay relative to control; assay type: functional; conditions: NCI-H226, 48 h, read-out: GI
PC-3 = experiment: Growth inhibition of human PC3 cells at 10 uM incubated for 48 hrs by sulforhodamine B assay relative to control; assay type: functional; conditions: PC-3, 48 h, read-out: GI
A549 = experiment: Growth inhibition of human A549/ATCC cells at 10 uM incubated for 48 hrs by sulforhodamine B assay relative to control; assay type: functional; conditions: A549, 48 h, read-out: GI
HOP-92 = experiment: Growth inhibition of human HOP92 cells at 10 uM incubated for 48 hrs by sulforhodamine B assay relative to control; assay type: functional; conditions: HOP-92, 48 h, read-out: GI
CAKI-1 = experiment: Growth inhibition of human Caki1 cells at 10 uM incubated for 48 hrs by sulforhodamine B assay relative to control; assay type: functional; conditions: CAKI-1, 48 h, read-out: GI
UACC-62 = experiment: Growth inhibition of human UACC62 cells at 10 uM incubated for 48 hrs by sulforhodamine B assay relative to control; assay type: functional; conditions: UACC-62, 48 h, read-out: GI
Malme-3M = experiment: Growth inhibition of human MALME-3M cells at 10 uM incubated for 48 hrs by sulforhodamine B assay relative to control; assay type: functional; conditions: read-out: GI
A498 = experiment: Growth inhibition of human A498 cells at 10 uM incubated for 48 hrs by sulforhodamine B assay relative to control; assay type: functional; conditions: A498, 48 h, read-out: GI
SNB-75 = experiment: Growth inhibition of human SNB75 cells at 10 uM incubated for 48 hrs by sulforhodamine B assay relative to control; assay type: functional; conditions: SNB-75, 48 h, read-out: GI
UO-31 = experiment: Growth inhibition of human UO31 cells at 10 uM incubated for 48 hrs by sulforhodamine B assay relative to control; assay type: functional; conditions: UO-31, 48 h, read-out: GI
EKVX = experiment: Growth inhibition of human EKVX cells at 10 uM incubated for 48 hrs by sulforhodamine B assay relative to control; assay type: functional; conditions: read-out: GI
IGROV-1 = experiment: Growth inhibition of human IGROV1 cells at 10 uM incubated for 48 hrs by sulforhodamine B assay relative to control; assay type: functional; conditions: IGROV-1, 48 h, read-out: GI
[5] = molecular target: Serine/threonine-protein kinase B-raf (Homo sapiens, UniProt P15056); experiment: Inhibition of human wild type BRAF by Kinase-Glo luminescence assay
Chain of Serine/threonine-protein kinase B-raf (P15056 whole entry): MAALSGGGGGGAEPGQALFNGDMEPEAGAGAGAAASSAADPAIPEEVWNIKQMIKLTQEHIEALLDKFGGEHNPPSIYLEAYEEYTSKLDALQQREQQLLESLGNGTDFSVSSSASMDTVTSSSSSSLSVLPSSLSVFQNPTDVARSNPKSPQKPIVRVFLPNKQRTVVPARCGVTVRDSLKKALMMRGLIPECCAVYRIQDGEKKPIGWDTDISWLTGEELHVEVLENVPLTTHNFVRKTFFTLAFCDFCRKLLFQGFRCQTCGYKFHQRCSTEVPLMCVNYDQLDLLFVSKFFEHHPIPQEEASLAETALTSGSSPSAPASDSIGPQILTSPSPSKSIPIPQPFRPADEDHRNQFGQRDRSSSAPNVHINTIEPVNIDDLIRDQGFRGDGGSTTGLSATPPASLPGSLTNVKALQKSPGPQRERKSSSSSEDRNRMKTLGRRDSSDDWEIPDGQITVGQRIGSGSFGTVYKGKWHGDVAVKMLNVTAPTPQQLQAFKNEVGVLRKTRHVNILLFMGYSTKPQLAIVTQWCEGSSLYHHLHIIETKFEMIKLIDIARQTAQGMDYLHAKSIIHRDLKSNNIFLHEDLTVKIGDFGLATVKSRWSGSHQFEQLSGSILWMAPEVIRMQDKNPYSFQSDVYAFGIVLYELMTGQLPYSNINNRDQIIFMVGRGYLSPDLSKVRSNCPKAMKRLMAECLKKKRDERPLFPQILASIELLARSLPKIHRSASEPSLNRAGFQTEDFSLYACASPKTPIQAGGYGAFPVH

MOLT-4 = experiment: Growth inhibition of human MOLT4 cells at 10 uM incubated for 48 hrs by sulforhodamine B assay relative to control; assay type: functional; conditions: MOLT-4, 48 h, read-out: GI
ACHN = experiment: Growth inhibition of human ACHN cells at 10 uM incubated for 48 hrs by sulforhodamine B assay relative to control; assay type: functional; conditions: read-out: GI
T47D [6] = experiment: Growth inhibition of human T47D cells at 10 uM incubated for 48 hrs by sulforhodamine B assay relative to control; assay type: functional; conditions: read-out: GI
NCI/ADR-RES = experiment: Growth inhibition of human NCI/ADR-RES cells at 10 uM incubated for 48 hrs by sulforhodamine B assay relative to control; assay type: functional; conditions: read-out: GI
SK-MEL-5 = experiment: Growth inhibition of human SK-MEL-5 cells at 10 uM incubated for 48 hrs by sulforhodamine B assay relative to control; assay type: functional; conditions: SK-MEL-5, 48 h, read-out: GI
MDA-MB-468 = experiment: Growth inhibition of human MDA-MB-468 cells at 10 uM incubated for 48 hrs by sulforhodamine B assay relative to control; assay type: functional; conditions: MDA-MB-468, 48 h, read-out: GI
SN12C = experiment: Growth inhibition of human SN12C cells at 10 uM incubated for 48 hrs by sulforhodamine B assay relative to control; assay type: functional; conditions: read-out: GI
LOX IMVI = experiment: Growth inhibition of human LOXIMVI cells at 10 uM incubated for 48 hrs by sulforhodamine B assay relative to control; assay type: functional; conditions: read-out: GI
CCRF-CEM = experiment: Growth inhibition of human CCRF-CEM cells at 10 uM incubated for 48 hrs by sulforhodamine B assay relative to control; assay type: functional; conditions: read-out: GI
BT-549 = experiment: Growth inhibition of human BT549 cells at 10 uM incubated for 48 hrs by sulforhodamine B assay relative to control; assay type: functional; conditions: BT-549, 48 h, read-out: GI
MCF7 [7] = experiment: Growth inhibition of human MCF7 cells at 10 uM incubated for 48 hrs by sulforhodamine B assay relative to control; assay type: functional; conditions: MCF7, 48 h, read-out: GI
HCT-116 = experiment: Growth inhibition of human HCT116 cells at 10 uM incubated for 48 hrs by sulforhodamine B assay relative to control; assay type: functional; conditions: HCT-116, 48 h, read-out: GI
K562 = experiment: Growth inhibition of human K562 cells at 10 uM incubated for 48 hrs by sulforhodamine B assay relative to control; assay type: functional; conditions: K562, 48 h, read-out: GI
SR = experiment: Growth inhibition of human SR cells at 10 uM incubated for 48 hrs by sulforhodamine B assay relative to control; assay type: functional; conditions: read-out: GI
NCI-H23 = experiment: Growth inhibition of human NCI-H23 cells at 10 uM incubated for 48 hrs by sulforhodamine B assay relative to control; assay type: functional; conditions: NCI-H23, 48 h, read-out: GI
RPMI-8226 = experiment: Growth inhibition of human RPMI8226 cells at 10 uM incubated for 48 hrs by sulforhodamine B assay relative to control; assay type: functional; conditions: RPMI-8226, 48 h, read-out: GI
OVCAR-8 = experiment: Growth inhibition of human OVCAR8 cells at 10 uM incubated for 48 hrs by sulforhodamine B assay relative to control; assay type: functional; conditions: OVCAR-8, 48 h, read-out: GI

Chain of Vascular endothelial growth factor receptor 2 (P35968 whole entry): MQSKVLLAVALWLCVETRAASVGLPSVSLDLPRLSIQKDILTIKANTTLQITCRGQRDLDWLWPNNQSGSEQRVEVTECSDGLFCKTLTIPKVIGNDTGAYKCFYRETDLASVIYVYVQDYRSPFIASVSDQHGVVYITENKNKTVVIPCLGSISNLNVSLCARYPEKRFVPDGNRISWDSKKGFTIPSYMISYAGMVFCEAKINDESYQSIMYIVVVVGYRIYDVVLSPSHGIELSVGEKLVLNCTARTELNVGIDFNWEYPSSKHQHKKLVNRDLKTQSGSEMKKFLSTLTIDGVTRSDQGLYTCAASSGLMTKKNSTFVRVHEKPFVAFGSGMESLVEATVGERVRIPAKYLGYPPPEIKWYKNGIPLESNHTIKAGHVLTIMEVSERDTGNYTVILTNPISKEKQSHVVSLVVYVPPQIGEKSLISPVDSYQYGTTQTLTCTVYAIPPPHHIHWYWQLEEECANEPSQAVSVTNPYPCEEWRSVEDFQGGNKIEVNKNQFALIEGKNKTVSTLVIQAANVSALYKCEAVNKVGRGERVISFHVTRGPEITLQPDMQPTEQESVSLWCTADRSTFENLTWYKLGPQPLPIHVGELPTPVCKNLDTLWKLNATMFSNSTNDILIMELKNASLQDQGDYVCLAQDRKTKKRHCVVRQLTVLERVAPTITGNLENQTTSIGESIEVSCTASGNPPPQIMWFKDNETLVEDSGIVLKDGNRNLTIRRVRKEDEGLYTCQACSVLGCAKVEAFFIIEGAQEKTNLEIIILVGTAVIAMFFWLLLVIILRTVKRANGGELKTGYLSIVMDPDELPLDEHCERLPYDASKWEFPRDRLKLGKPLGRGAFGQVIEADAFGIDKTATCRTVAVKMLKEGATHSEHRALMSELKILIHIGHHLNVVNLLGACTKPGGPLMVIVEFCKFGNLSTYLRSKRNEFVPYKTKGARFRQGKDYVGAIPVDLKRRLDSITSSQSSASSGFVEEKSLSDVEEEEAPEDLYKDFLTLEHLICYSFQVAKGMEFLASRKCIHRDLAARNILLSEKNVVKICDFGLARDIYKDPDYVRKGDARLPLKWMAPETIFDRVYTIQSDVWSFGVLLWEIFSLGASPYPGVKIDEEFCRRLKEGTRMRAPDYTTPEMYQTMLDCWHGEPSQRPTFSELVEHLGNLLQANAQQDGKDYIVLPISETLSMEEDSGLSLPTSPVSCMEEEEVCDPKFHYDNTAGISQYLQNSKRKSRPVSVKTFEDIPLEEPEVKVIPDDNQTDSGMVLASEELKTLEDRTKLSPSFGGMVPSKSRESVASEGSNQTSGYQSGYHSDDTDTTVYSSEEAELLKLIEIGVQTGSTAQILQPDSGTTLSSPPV

N#Cc1ccc(C(=O)CSc2nccc(Nc3ccc(N4CCOCC4)cc3)n2)cc1 gave an IC50 [1] of 1100 nM and an IC50 (MCF7 [2]) of 69 µM.
For CCOC(=O)c1ccc(Nc2ccnc(SCC(=O)c3ccc(C(F)(F)F)cc3)n2)cc1, the IC50 (T47D [3]) was 32.1 µM, the IC50 [1] was 1960 nM and the IC50 (MCF7 [2]) was 19.6 µM. It also gave an inhibition at 10 µM (MCF7 [4]) of 76%.
CC(=O)c1cccc(Nc2ccnc(SCC(=O)c3ccc(Cl)cc3)n2)c1 was tested, and the IC50 (T47D [3]) was 33 µM, the IC50 [1] was 480 nM and the IC50 (MCF7 [2]) was 53.6 µM.
Compound O=C(O)c1ccc(Nc2ccnc(SCC(=O)c3ccc(C(F)(F)F)cc3)n2)cc1 has an inhibition of growth at 10 µM (NCI-H522) of 15%, an inhibition of growth at 10 µM (MDA-MB-231) of 24% and an inhibition of growth at 10 µM (Hs-578T) of 10%. It also gave an inhibition of growth at 10 µM (NCI-H226) of 13%, an inhibition of growth at 10 µM (PC-3) of 12% and an inhibition of growth at 10 µM (A549) of 10%. It also gave an inhibition of growth at 10 µM (HOP-92) of 16%, an IC50 [1] greater than 10000 nM and an inhibition of growth at 10 µM (CAKI-1) of 19%. For the same compound, the IC50 (MCF7 [2]) was 67.5 µM, the inhibition of growth at 10 µM (UACC-62) was 12% and the inhibition of growth at 10 µM (Malme-3M) was 30%. It also gave an inhibition of growth at 10 µM (A498) of 39%, an inhibition of growth at 10 µM (SNB-75) of 28% and an inhibition of growth at 10 µM (UO-31) of 32%. For the same compound, the inhibition of growth at 10 µM (EKVX) was 10% and the inhibition of growth at 10 µM (IGROV-1) was 13%.
With N#Cc1ccc(C(=O)CSc2nccc(Nc3ccc(C(=O)O)cc3)n2)cc1 the IC50 [5] was 1700 nM, the IC50 [1] was 120 nM and the IC50 (MCF7 [2]) was 17.2 µM. For the same compound, the inhibition at 10 µM (MCF7 [4]) was 77%.
Compound CC(=O)c1ccc(Nc2ccnc(SCC(=O)c3ccc(Br)cc3)n2)cc1 has an inhibition of growth at 10 µM (MOLT-4) of 39%, an inhibition of growth at 10 µM (ACHN) of 10% and an inhibition of growth at 10 µM (T47D [6]) of 44%. For the same compound, the inhibition of growth at 10 µM (NCI/ADR-RES) was 31%, the inhibition of growth at 10 µM (NCI-H522) was 29% and the inhibition of growth at 10 µM (SK-MEL-5) was 17%. For the same compound, the inhibition of growth at 10 µM (MDA-MB-468) was 21%, the inhibition of growth at 10 µM (MDA-MB-231) was 12% and the inhibition of growth at 10 µM (SN12C) was 14%. It also gave an inhibition of growth at 10 µM (NCI-H226) of 25%, an inhibition of growth at 10 µM (PC-3) of 25% and an inhibition of growth at 10 µM (LOX IMVI) of 14%. It also gave an inhibition of growth at 10 µM (A549) of 10%, an inhibition of growth at 10 µM (CCRF-CEM) of 30% and an IC50 [1] of 950 nM. It also gave an inhibition of growth at 10 µM (BT-549) of 19%, an inhibition of growth at 10 µM (CAKI-1) of 24% and an IC50 (MCF7 [2]) of 17.2 µM. The inhibition at 10 µM (MCF7 [4]) was 76%, the inhibition of growth at 10 µM (MCF7 [7]) was 18% and the inhibition of growth at 10 µM (HCT-116) was 10%. For the same compound, the inhibition of growth at 10 µM (K562) was 30%, the inhibition of growth at 10 µM (UACC-62) was 23% and the inhibition of growth at 10 µM (SR) was 25%. It also gave an inhibition of growth at 10 µM (NCI-H23) of 16%, an inhibition of growth at 10 µM (A498) of 19% and an inhibition of growth at 10 µM (SNB-75) of 13%. The inhibition of growth at 10 µM (RPMI-8226) was 35%, the inhibition of growth at 10 µM (UO-31) was 38% and the inhibition of growth at 10 µM (OVCAR-8) was 18%. It also gave an inhibition of growth at 10 µM (IGROV-1) of 12%.
With CCOC(=O)c1ccc(Nc2ccnc(SCC(=O)c3ccc(OC)cc3)n2)cc1 the IC50 (T47D [3]) was 43.4 µM, the IC50 [5] was 410 nM and the IC50 [1] was 190 nM. It also gave an IC50 (MCF7 [2]) of 32.1 µM and an inhibition at 10 µM (MCF7 [4]) of 12%.
O=C(O)c1ccc(Nc2ccnc(SCC(=O)c3ccc(Cl)cc3)n2)cc1 was tested, and the IC50 [5] was 370 nM, the IC50 [1] was 170 nM and the IC50 (MCF7 [2]) was 37.2 µM. The inhibition at 10 µM (MCF7 [4]) was 35%.
Compound CNC(=O)c1cc(Oc2ccc(NC(=O)Nc3ccc(Cl)c(C(F)(F)F)c3)cc2)ccn1 [SORAFENIB] has an IC50 (T47D [3]) of 1.6 µM, an IC50 (MCF7 [2]) of 4.33 µM and an inhibition at 10 µM (MCF7 [4]) of 90%.
